From patent publication US6369109B1, “Betulinic acid and derivatives thereof useful for the treatment of neuroectodermal tumor” (Deutsches Krebsforschungszentrum Stiftung des Offentlichen …, priority 1998, dated 2002)
Entries after “also recorded” stand apart in the source; their conditions may differ.

Key:
[1] = tested on: cytochrome c in SHEP cells; test: Drug-induced release of cyt c from mitochondria in cells (Western blot); assay type: cell-based, human; conditions: 0.5 μg/ml Doxo or 10 μg/ml Bet A; FIG. 16A
Experimental: Cells were lysed for 30 mm at 4° C. in PBS with 0.5% Triton X (Serva, Heidelberg, Germany) and 1 mM PMSF (Sigma, Deisenhofen, Germany) followed by high-speed centrifugation. Membrane proteins were eluted in buffer containing 0.1 M glycine, pH 3.0 and 1.5 M Tris, pH 8.8. Protein concentration was assayed using bicinchoninic acid (Pierce, Rockford, Ill.). 40 μg protein per lane was separated by 12% or 15% SDS-PAGE and electroblotted onto nitrocellulose (Amersham, Braunschweig, Germany). Equal protein loading was controlled by Ponceau red staining of membranes. […]
For isolation of mitochondria, cells (3×10^8 per sample) were washed twice with ice-cold PBS and resuspended with five volumes of buffer A (50 mM Tris buffer, 1 mM EGTA, 5 mM 2-mercaptoethanol, 0.2% BSA, 10 mM KH2PO4, pH 7.6, 0.4 M sucrose) and allowed to swell on ice for 20 min. […] The protein concentration of mitochondria or cytosolic extracts was determined by the Bradford method. […]

[2] = tested on: p53 protein in SH-EP neuroblastoma cells; test: Western blot of p53 accumulation; assay type: cell-based, human; conditions: 10 μg/ml betulinic acid; 0.5 μg/ml doxorubicin 12 h; FIG. 5D
Experimental: Cells were lysed for 30 min at 4° C. in PBS with 0.5% Triton X (Serva, Heidelberg, Germany) and 1 mM phenylmethylsulfonyl fluoride (Sigma, Deisenhofen, Germany) followed by high-speed centrifugation. Membrane proteins were eluted in buffer containing 0.1 M glycine. PH 3.0 and 1.5 M Tris, pH 8.8. Protein concentration was assayed using bicinchoninic acid (Pierce Chemical Co., Rockford, Ill.). Forty μg of protein per lane were separated by 12% SDS-PAGE and electroblotted onto nitrocellulose (Amersham, Braunschweig, Germany). Equal protein loading was controlled by Ponceau red staining of membranes. After blocking for 1 h in PBS supplemented with 2% BSA (Sigma) and 0.1% Tween 20 (Sigma), immunodetection of FLICE, CPP32, PARP, Bax, Bcl-x, Bcl-2, and p53 protein was done using mouse anti-FLICE monoclonal antibody C15 (1:5 dilution of hybridoma supernatant), mouse anti-CPP32 monoclonal antibody (1:1000, Transduction Laboratories, Lexington, KY), rabbit anti-PARP polyclonal antibody (1:10000, Enzyme Systems Products), rabbit anti-Bax polyclonal antibody (1:500, Calbiochem, Bad Soden, Germany), rabbit anti-Bcl-x polyclonal antibody (1:1000, Santa Cruz Biotechnology, Santa Cruz, Calif.), mouse anti-p53 monoclonal antibody (1:10000, Transduction Laboratories), and goat anti-mouse 1gG or goat antirabbit IgG (1:5000, Santa Cruz Biotechnology), ECL (Amersham) was used for detection. […]

## COc1cccc2c1C(=O)c1c(O)c3c(c(O)c1C2=O)C[C@@](O)(C(=O)CO)C[C@@H]3O[C@H]1C[C@H](N)[C@H](O)[C@H](C)O1 [doxorubicin]
[1]
  mitochondrial cytochrome c levels after stimulation: mitochondrial cytochrome c levels declined
[2]
  accumulation of p53 protein: induces the accumulation of p53 protein; also recorded: strongly increased
